# Reference: the NIST ThermoML archive (doi:10.1016/j.fluid.2015.09.036)
# ± gives the expanded uncertainty stated by the source.
# Test: wn = mass fraction of the nth substance listed
# Conditions: 101.3 kPa, Liquid, Vibrating tube method
"mass density (283.15 K, w1 = 0.1926) [kg/m3]","mass density (303.15 K, w1 = 0.4065) [kg/m3]","mass density (313.15 K, w1 = 0.5552) [kg/m3]","mass density (283.15 K, w1 = 0.06948) [kg/m3]","mass density (303.15 K, w1 = 0.1384) [kg/m3]","mass density (313.15 K, w1 = 0.1853) [kg/m3]",SMILES
967.2 ± 0.8,999.4 ± 1.6,1005.4 ± 1.8,,,,"O=C(O)CCCC(=O)O [1,5-pentanedioic acid] + CCO"
,,,841 ± 0.3,855.2 ± 0.5,876.9 ± 0.7,"O=C(O)CCCCC(=O)O [1,6-hexanedioic acid] + CCO"
